The record followed here is patent US12674135B2, “Three-dimensional culture of immortalized skin cells on the superficial layer of which a stratum corneum is formed, method for producing said three-dimensional culture, and method for evaluating test substance using said three-dimensional culture” (National Institute of Advanced Industrial Science and …, priority 2020, dated 2026).

Each structure is given as a SMILES string.

Data set [1] deals with IL-8 promoter (red light-emitting luciferase) in three-dimensional culture of HaCaT.
Excerpt: (§1) The thus obtained HaCaT was used to obtain a three-dimensional culture by the same method as in Example 1. The three-dimensional culture was a three-dimensional culture in which a Cellbed was used as a plate-like substrate as in Example 1, to which a HaCaT culture layered product was adhered, and the superficial layer of the three-dimensional culture was the stratum corneum.
(§2) A cell culture insert (Falcon Culture Insert #353095) comprising a clear, colorless, PET membrane with a 0.4 μm pore size bottom for 24 wells was inserted into the wells of a 24-well plate for cell culture with black walls and a colorless bottom, the three-dimensional culture was placed in the bottom of the culture insert with the cells on top, and 0.8 mL of KGM-gold containing 0.2 mM luciferin potassium salt was placed in the well outside the culture insert. For sensitization evaluation, a test substance was loaded from the top of the three-dimensional culture inside the insert. […] As a solvent control, 30 μL of KGM medium was added from the top of the three-dimensional culture. Plastic paraffin film was sprinkled around this well plate and the luminescence was measured for 0 to 72 hours with a real-time luminescence monitoring system for cultured cells, Kronos HT (manufactured by ATTO Corporation). Measurements were taken every minute for 10 seconds for each color and continued for 0 to 72 hours. […]
The test system is the same in data set [2]. Particulars: 20 μM, 100 μM and 200 μM, loaded from bottom and top surfaces, 0 to 72 hours, FIG. 15.
Excerpt: as §1
A cell culture insert (Falcon Culture Insert #353095) comprising a clear, colorless, PET membrane with a 0.4 μm pore size bottom for 24 wells was inserted into the wells of a 24-well plate for cell culture with black walls and a colorless bottom, the three-dimensional culture obtained in Example 3 was placed in the bottom of the culture insert with the cells on top. […] 0.8 mL of this medium was placed on the outside of the culture insert, and then 30 μL was loaded from the top of the three-dimensional culture. […]
Plastic paraffin film was sprinkled around this well plate and the luminescence was measured for 0 to 72 hours with a real-time luminescence monitoring system for cultured cells, Kronos HT (manufactured by ATTO Corporation). The bioluminescence intensity of each luciferase was measured on these three-dimensional cultures as in Example 5.
For data set [3] the test system is unchanged. As to the kind of experiment: Skin sensitization evaluation: test substance loaded from the top of the three-dimensional HaCaT culture, multicolor luciferase luminescence (IL-8 promoter red / UBC promoter green). Particulars: range of from 200 µM to 2 mM in KGM medium, 30 μL loaded only from the top, up to 72 hours, FIG. 10.
Excerpt: as §1, §2

Take `CCCCN(CCCC)c1ccccc1` [DA, dibutylaniline]: the “emission intensity, concentration dependence” value in data set [1] is recorded as “concentration dependence was observed”.
As for `Oc1ccc(O)cc1` [HQ, hydroquinone], the “bioluminescence intensity ratio of red light-emitting luciferase (IL-8 promoter) to green light-emitting luciferase (ubiquitin C promoter)” value in data set [2] is on record as “increased in a concentration-dependent manner”. Besides, the “relative bioluminescence intensity of red light-emitting luciferase (IL-8 promoter) to green light-emitting luciferase (ubiquitin C promoter)” value in data set [3] is “concentration-dependent increase”.
